According to patent US11578087B2, “Oxaborole esters and uses thereof” (priority 2016, dated 2023):
pIC50: −log10 of the molar value.

How the values were obtained:
[1] = tested on: T. cruzi amastigote (Td Tomato-modified) in Vero cells; experiment: In vitro IC50 measurement of T. cruzi amastigote killing using Td Tomato-modified T. cruzi; assay type: cell-based; settings: Trypanosoma cruzi, 72 h, fluorescence, read-out: IC50: I Org. amastigote Growth T. cruzi 3 d
In short: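 IC50/IC90 came from nonlinear regression of Day 3 minus Day 0 fluorescence (544/612 nm), correcting for input parasites. Final compound concentrations spanned 5 nM–5 uM on Td Tomato T. cruzi-infected Vero cells, 72 h at 37 °C.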

[2] = tested on: IL3000 T. congolense (drug sensitive) strain; experiment: In vitro Alamar Blue 72 h drug sensitivity assay for T. congolense; assay type: cell-based, Trypanosoma congolense; settings: Trypanosoma congolense, 72 h, bloodstream form, 69 h + 3 h Resazurin, 34° C., read-out: IC50: I Org. Growth T. congolense 3 d
In short: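 IC50 values derive from 11-point curves averaged over at least three independent runs, with fluorescence read at 536 nm excitation and 588 nm emission. Resazurin was added for a final 3 h after 69 h compound exposure of bloodstream forms (HMI medium, 20% bovine serum, 34° C, 5% CO2).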

Structure (SMILES) | pIC50 [1] | pIC50 [2]
Cc1c(C(=O)N[C@H](C(=O)OC2CCOCC2)C(C)C)ccc2c1B(O)OC2 [Example 6-134, Tetrahydro-2H-pyran-4-yl (1-hydroxy-7-methyl-1,3-dihydrobenzo[c][1,2]oxaborole-6-carbonyl)-L-valinate] | ≥ 7.70 | > 9.30
Cc1c(C(=O)N[C@H](C(=O)OCc2ccc(C(=O)N3CCNCC3)cc2)C(C)C)ccc2c1B(O)OC2 [Example 6-102, 4-(Piperazine-1-carbonyl)benzyl (1-hydroxy-7-methyl-1,3-dihydrobenzo[c][1,2]oxaborole-6-carbonyl)-L-valinate] | ≤ 6.00 | 5.30 to 8.00
CC(C)c1c(C(=O)N[C@H](C(=O)OCc2ccccc2)C(C)C)ccc2c1B(O)OC2 [Example 6-063, Benzyl (1-hydroxy-7-isopropyl-1,3-dihydrobenzo[c][1,2]oxaborole-6-carbonyl)-L-valinate] | ≤ 6.00 | 8.00 to 9.29
Cc1c(C(=O)N[C@H](C(=O)OCc2cc(C(F)(F)F)ncn2)C(C)C)ccc2c1B(O)OC2 [Example 6-161, (6-(trifluoromethyl)pyrimidin-4-yl)methyl (1-hydroxy-7-methyl-1,3-dihydrobenzo[c][1,2]oxaborole-6-carbonyl)-L-valinate] | ≥ 7.70 | > 9.30
CC(C)[C@H](NC(=O)c1ccc2c(c1F)B(O)OC2)C(=O)OCc1ccccc1 [Example 6-035, Benzyl (7-fluoro-1-hydroxy-1,3-dihydrobenzo[c][1,2]oxaborole-6-carbonyl)-L-valinate] | ≤ 6.00 | 5.30 to 8.00
Cc1c(C(=O)N[C@H](C(=O)OCc2ccc(F)c(F)c2)C(C)C)ccc2c1B(O)OC2 [Example 6-166, 3,4-Difluorobenzyl (1-hydroxy-7-methyl-1,3-dihydrobenzo[c][1,2]oxaborole-6-carbonyl)-L-valinate] | ≥ 7.70 | > 9.30
Cc1c(C(=O)N[C@H](C(=O)OCc2cncc(N3CCOCC3)n2)C(C)C)ccc2c1B(O)OC2 [Example 6-193, (6-morpholinopyrazin-2-yl)methyl (1-hydroxy-7-methyl-1,3-dihydrobenzo[c][1,2]oxaborole-6-carbonyl)-L-valinate] | ≥ 7.70 | > 9.30
Cc1c(C(=O)N[C@H](C(=O)OCc2ccc(F)cc2)C(C)C)ccc2c1B(O)OC2 [Example 6-165, 4-Fluorobenzyl (1-hydroxy-7-methyl-1,3-dihydrobenzo[c][1,2]oxaborole-6-carbonyl)-L-valinate] | ≥ 7.70 | > 9.30
Cc1c(C(=O)N[C@H](C(=O)OC[C@H]2COC(C)(C)O2)C(C)C)ccc2c1B(O)OC2 [Example 6-144, ((R)-2,2-Dimethyl-1,3-dioxolan-4-yl)methyl (1-hydroxy-7-methyl-1,3-dihydrobenzo[c][1,2]oxaborole-6-carbonyl)-L-valinate] | ≥ 7.70 | 8.00 to 9.29
Cc1c(C(=O)N[C@H](C(=O)OCc2cccc(C(F)(F)F)c2)C(C)C)ccc2c1B(O)OC2 [Example 6-046, 3-Trifluoromethylbenzyl (1-hydroxy-7-methyl-1,3-dihydrobenzo[c][1,2]oxaborole-6-carbonyl)-L-valinate] | ≥ 7.70 | > 9.30
COC(=O)[C@@H](NC(=O)c1ccc2c(c1C)B(O)OC2)C(C)C [Example 6-069, Methyl (1-hydroxy-7-methyl-1,3-dihydrobenzo[c][1,2]oxaborole-6-carbonyl)-L-valinate] | 6.00 to 7.68 | 8.00 to 9.29
Cc1c(C(=O)N[C@H](C(=O)OCC2CCCC2)C(C)(C)O)ccc2c1B(O)OC2 [Example 6-228, Cyclopentylmethyl (S)-3-hydroxy-2-(1-hydroxy-7-methyl-1,3-dihydrobenzo[c][1,2]oxaborole-6-carboxamido)-3-methylbutanoate] | 6.00 to 7.68 | > 9.30
Cc1c(C(=O)N[C@H](C(=O)OCC2(F)CCOCC2)C(C)C)ccc2c1B(O)OC2 [Example 6-226, (4-fluorotetrahydro-2H-pyran-4-yl)methyl (1-hydroxy-7-methyl-1,3-dihydrobenzo[c][1,2]oxaborole-6-carbonyl)-L-valinate] | ≥ 7.70 | > 9.30
Cc1c(C(=O)N[C@H](C(=O)OCc2ccc(F)cc2)C2CC2)ccc2c1B(O)OC2 [Example 6-050, 4-Fluorobenzyl (S)-2-cyclopropyl-2-(1-hydroxy-7-methyl-1,3-dihydrobenzo[c][1,2]oxaborole-6-carboxamido)acetate] | 6.00 to 7.68 | > 9.30
O=C(N[C@@H](Cc1ccccc1)C(=O)OCc1ccccc1)c1ccc2c(c1)B(O)OC2 [Example 6-009, Benzyl (1-hydroxy-1,3-dihydrobenzo[c][1,2]oxaborole-6-carbonyl)-L-phenylalaninate] | ≤ 6.00 | 8.00 to 9.29
Cc1c(C(=O)N[C@H](C(=O)OCc2cnc(N)nc2)C(C)C)ccc2c1B(O)OC2 [Example 6-225, (2-aminopyrimidin-5-yl)methyl (1-hydroxy-7-methyl-1,3-dihydrobenzo[c][1,2]oxaborole-6-carbonyl)-L-valinate] | 6.00 to 7.68 | 5.30 to 8.00
Cc1c(C(=O)NC2(C(=O)OCc3ccc(F)cc3)COC2)ccc2c1B(O)OC2 [Example 6-221, 4-fluorobenzyl 3-(1-hydroxy-7-methyl-1,3-dihydrobenzo[c][1,2]oxaborole-6-carboxamido)oxetane-3-carboxylate] | 6.00 to 7.68 | 8.00 to 9.29
Cc1c(C(=O)N[C@H](C(=O)OCc2ccnc(C(F)(F)F)n2)C(C)C)ccc2c1B(O)OC2 [Example 6-160, (2-(Trifluoromethyl)pyrimidin-4-yl)methyl (1-hydroxy-7-methyl-1,3-dihydrobenzo[c][1,2]oxaborole-6-carbonyl)-L-valinate] | 6.00 to 7.68 | > 9.30
Cc1c(C(=O)N[C@H](C(=O)OCc2ccc(F)cc2)C(C)C)ccc2c1B(O)OC2C (stereo partly drawn) [Example 6-061, 4-Fluorobenzyl (3,7-dimethyl-1-hydroxy-1,3-dihydrobenzo[c][1,2]oxaborole-6-carbonyl)-L-valinate] | 6.00 to 7.68 | 8.00 to 9.29
Cc1c(C(=O)N[C@H](C(=O)OC2CCN(C)CC2)C(C)C)ccc2c1B(O)OC2 [Example 6-142, 1-Methylpiperidin-4-yl (1-hydroxy-7-methyl-1,3-dihydrobenzo[c][1,2]oxaborole-6-carbonyl)-L-valinate] | 6.00 to 7.68 | > 9.30
NC(=O)C[C@H](NC(=O)c1ccc2c(c1)B(O)OC2)C(=O)OCc1ccccc1 [Example 6-010, Benzyl (1-hydroxy-1,3-dihydrobenzo[c][1,2]oxaborole-6-carbonyl)-L-asparaginate] | ≤ 6.00 | 5.30 to 8.00
Cc1c(C(=O)NC2(C(=O)OCc3ccccn3)COC2)ccc2c1B(O)OC2 [Example 6-223, Pyridin-2-ylmethyl 3-(1-hydroxy-7-methyl-1,3-dihydrobenzo[c][1,2]oxaborole-6-carboxamido)oxetane-3-carboxylate] | 6.00 to 7.68 | 5.30 to 8.00
CC(C)[C@H](NC(=O)c1ccc2c(c1C1CC1)B(O)OC2)C(=O)OCc1ccccc1 [Example 6-058, Benzyl (7-cyclopropyl-1-hydroxy-1,3-dihydrobenzo[c][1,2]oxaborole-6-carbonyl)-L-valinate] | ≤ 6.00 | > 9.30
Cc1c(C(=O)N[C@H](C(=O)OCc2cnc3ccccc3n2)C(C)C)ccc2c1B(O)OC2 [Example 6-123, Quinoxalin-2-ylmethyl (1-hydroxy-7-methyl-1,3-dihydrobenzo[c][1,2]oxaborole-6-carbonyl)-L-valinate] | ≥ 7.70 | > 9.30
Cc1c(C(=O)N[C@H](C(=O)OCc2ccc(C(F)(F)F)nc2)C(C)C)ccc2c1B(O)OC2 [Example 6-168, (6-(Trifluoromethyl)pyridin-3-yl)methyl (1-hydroxy-7-methyl-1,3-dihydrobenzo[c][1,2]oxaborole-6-carbonyl)-L-valinate] | ≥ 7.70 | > 9.30
CC(C)[C@H](NC(=O)c1ccc2c(c1C(F)(F)F)B(O)OC2)C(=O)OCc1ccccc1 [Example 6-071, Benzyl (1-hydroxy-7-(trifluoromethyl)-1,3-dihydrobenzo[c][1,2]oxaborole-6-carbonyl)-L-valinate] | 6.00 to 7.68 | 5.30 to 8.00
CCOc1c(C(=O)N[C@H](C(=O)OCc2ccccc2)C(C)C)ccc2c1B(O)OC2 [Example 6-192, Benzyl (7-ethoxy-1-hydroxy-1,3-dihydrobenzo[c][1,2]oxaborole-6-carbonyl)-L-valinate] | ≤ 6.00 | 8.00 to 9.29
Cc1c(C(=O)N[C@H](C(=O)OCc2cccc(N3CCOCC3)n2)C(C)C)ccc2c1B(O)OC2 [Example 6-197, (6-morpholinopyridin-2-yl)methyl (1-hydroxy-7-methyl-1,3-dihydrobenzo[c][1,2]oxaborole-6-carbonyl)-L-valinate] | ≥ 7.70 | > 9.30
Cc1c(C(=O)N[C@H](C(=O)OCc2cccc(N3CCNCC3)c2)C(C)C)ccc2c1B(O)OC2 [Example 6-126, 3-(Piperazin-1-yl)benzyl (1-hydroxy-7-methyl-1,3-dihydrobenzo[c][1,2]oxaborole-6-carbonyl)-L-valinate] | ≤ 6.00 | 8.00 to 9.29
Cc1c(C(=O)N[C@H](C(=O)OCc2c[nH]cn2)C(C)C)ccc2c1B(O)OC2 [Example 6-138, (1H-Imidazol-4-yl)methyl (1-hydroxy-7-methyl-1,3-dihydrobenzo[c][1,2]oxaborole-6-carbonyl)-L-valinate] | ≤ 6.00 | 5.30 to 8.00
